Data on nine molecules can be found in patent US6723841B2, “Corticotropin-releasing factor2 receptors” (priority 1994, dated 2004).

pEC50: −log10 of the molar value. Ends that are not written are not given here.

What all share (type): cell-based
The test system of one assay is human CRF2α receptor. Put plainly: cAMP assay (adenylate cyclase stimulation) in cells transfected with CRF2α receptor. Conditions: cAMP production, read-out: effective concentration of one-half maximal adenylate cyclase stimulation (EC50), human CRF2α receptor. The protocol: (§1) For agonist testing, compounds are added to wells with buffer only in order to identify compounds with intrinsic activity. […] Compounds are then assessed for their ability to inhibit the CRF-stimulated cAMP production in the transfected cells. Briefly, cells are plated and grown in DMEM containing 10% fetal bovine serum for 2-4 days in 24-well plates at 37° C. On the day of assay, the medium is removed by vacuum aspiration and 100 μl of DMEM, 10 mM MgCl2, 1 mM isobutylmethylxanthine (a phosphodiesterase inhibitor to inhibit the breakdown of cAMP produced) and 0.1% BSA (pH 7.2) are added to each well. CRF, related peptides and organic test molecules are added to individual wells. The plates are incubated at 37° C. for a period of 1 hour. Following incubation, the wells are aspirated, rinsed once with PBS and aspirated again. 300 μl of 95% Ethanol and 20 mM HCl (EtOH/HCl) are then added to each well and the plates incubated at −20° C. overnight to extract the produced cAMP. The EtOH/HCl is removed, placed in 1.5 ml polypropylene eppendorf tubes and the wells washed with an additional 200 μl of EtOH/HCl and pooled with the initial sample. All samples are dried in a Speed-Vac (Savant Instruments, Farmingdale N.Y.) and either stored at −20° C. until use or reconstituted with 500 μl of sodium acetate buffer pH 7.5 and assayed immediately for cAMP concentration using a radioimmunoassay kit from Biomedical Technologies Inc. (Stoughton Mass.) according to manufacturers instructions.
The above results have been formulated below in Table I, wherein the effective concentration of one-half maximal adenylate cyclase stimulation (EC50) are presented.
Background: Changes in cAMP serve as a functional read-out for many G protein-coupled receptors.

Another assay concerns the target T1, rat CRF2α receptor (Rattus norvegicus, UniProt P47866).
T1 construct: A full-length CRF2 receptor clone in pBluescriptSK- is isolated from the phage clone described above; expressed in transfected cells; host or cells: COS-7
Put plainly: cAMP accumulation in cells transfected with rat CRF2α receptor (FIG. 4). As to the method: as §1, with “All samples are dried in a Speed-Vac (Savant Instruments, Farmingdale N.Y.) and either stored at −20° C. until use or reconstituted with 500 μl of sodium acetate buffer pH 7.5 and assayed immediately for cAMP concentration using a radioimmunoassay kit from Biomedical Technologies Inc. (Stoughton Mass.) according to manufacturers instructions.” left out
In FIG. 4, the rat CRF2α receptor has been transfected into cells and cAMP accumulation is measured in response to the same drugs as shown in FIG. 3. […]

Another assay concerns the target T2, rat CRF2β receptor (Rattus norvegicus, UniProt P47866).
T2 construct: A full-length CRF2 receptor clone in pBluescriptSK- is isolated from the phage clone described above; expressed in transfected cells; host or cells: COS-7
Put plainly: cAMP assay (adenylate cyclase stimulation) in cells transfected with CRF2β receptor. Particulars: cAMP production, read-out: effective concentration of one-half maximal adenylate cyclase stimulation (EC50), rat CRF2β receptor.

In another assay the target is T3, human CRF1 receptor (Homo sapiens, UniProt P34998).
T3 construct: expressed in transfected cells
T3 sequence (P34998 24-415): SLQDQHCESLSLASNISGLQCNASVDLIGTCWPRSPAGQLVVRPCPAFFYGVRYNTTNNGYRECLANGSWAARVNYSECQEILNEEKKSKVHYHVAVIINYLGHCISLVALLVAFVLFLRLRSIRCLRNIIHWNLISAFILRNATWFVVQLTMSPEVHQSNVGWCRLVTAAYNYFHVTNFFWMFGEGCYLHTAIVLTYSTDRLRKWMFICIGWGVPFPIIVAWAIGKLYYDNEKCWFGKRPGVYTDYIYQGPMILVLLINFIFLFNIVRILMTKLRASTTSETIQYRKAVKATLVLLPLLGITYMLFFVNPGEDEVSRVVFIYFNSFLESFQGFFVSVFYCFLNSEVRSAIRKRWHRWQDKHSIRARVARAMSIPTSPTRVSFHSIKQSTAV
As to the kind of experiment: cAMP assay (adenylate cyclase stimulation) in cells transfected with CRF1 receptor. Particulars: for pEC50: transfected cells, cAMP production, read-out: effective concentration of one-half maximal adenylate cyclase stimulation (EC50), human CRF1 receptor; for cAMP accumulation in cells transfected with the CRF1 receptor: FIG. 3.

T1 sequence (P47866 whole entry): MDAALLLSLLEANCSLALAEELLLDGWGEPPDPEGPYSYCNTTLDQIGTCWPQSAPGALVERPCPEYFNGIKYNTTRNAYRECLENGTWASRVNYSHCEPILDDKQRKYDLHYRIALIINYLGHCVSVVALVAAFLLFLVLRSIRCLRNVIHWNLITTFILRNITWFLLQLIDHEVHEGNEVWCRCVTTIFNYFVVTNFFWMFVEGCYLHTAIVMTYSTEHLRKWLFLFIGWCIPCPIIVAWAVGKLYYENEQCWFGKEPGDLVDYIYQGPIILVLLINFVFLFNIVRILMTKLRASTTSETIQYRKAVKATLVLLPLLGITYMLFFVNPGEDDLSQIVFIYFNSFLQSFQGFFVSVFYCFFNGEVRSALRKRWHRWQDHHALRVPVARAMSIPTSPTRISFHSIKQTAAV
T2 sequence (P47866 1-431 isoform P47866-2): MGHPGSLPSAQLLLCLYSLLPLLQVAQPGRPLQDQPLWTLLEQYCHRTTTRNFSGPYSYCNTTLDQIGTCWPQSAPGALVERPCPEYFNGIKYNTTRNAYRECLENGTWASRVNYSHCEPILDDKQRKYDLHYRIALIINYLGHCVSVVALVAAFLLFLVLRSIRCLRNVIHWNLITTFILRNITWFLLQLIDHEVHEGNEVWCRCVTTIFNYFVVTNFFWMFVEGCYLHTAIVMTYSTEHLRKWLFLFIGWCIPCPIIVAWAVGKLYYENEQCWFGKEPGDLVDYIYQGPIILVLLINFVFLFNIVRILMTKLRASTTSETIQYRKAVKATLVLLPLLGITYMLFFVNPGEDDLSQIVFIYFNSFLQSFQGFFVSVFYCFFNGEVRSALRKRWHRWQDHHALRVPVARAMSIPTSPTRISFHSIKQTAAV
Description for human CRF1 receptor: (§2) For agonist testing, compounds are added to wells with buffer only in order to identify compounds with intrinsic activity. […] Briefly, cells are plated and grown in DMEM containing 10% fetal bovine serum for 2-4 days in 24-well plates at 37° C. On the day of assay, the medium is removed by vacuum aspiration and 100 μl of DMEM, 10 mM MgCl2, 1 mM isobutylmethylxanthine (a phosphodiesterase inhibitor to inhibit the breakdown of cAMP produced) and 0.1% BSA (pH 7.2) are added to each well. […] The plates are incubated at 37° C. for a period of 1 hour. Following incubation, the wells are aspirated, rinsed once with PBS and aspirated again. 300 μl of 95% Ethanol and 20 mM HCl (EtOH/HCl) are then added to each well and the plates incubated at −20° C. overnight to extract the produced cAMP. The EtOH/HCl is removed, placed in 1.5 ml polypropylene eppendorf tubes and the wells washed with an additional 200 μl of EtOH/HCl and pooled with the initial sample. All samples are dried in a Speed-Vac (Savant Instruments, Farmingdale N.Y.) and either stored at −20° C. until use or reconstituted with 500 μl of sodium acetate buffer pH 7.5 and assayed immediately for cAMP concentration using a radioimmunoassay kit from Biomedical Technologies Inc. (Stoughton Mass.) according to manufacturers instructions.
Description for rat CRF2β receptor: as §2

For `N=C(N)NCCC[C@H](NC(=O)[C@@H]1CCCN1C(=O)[C@@H]1CSSC[C@H](N)C(=O)N[C@@H](Cc2ccc(O)cc2)C(=O)N[C@@H](Cc2ccccc2)C(=O)N[C@@H](CCC(N)=O)C(=O)N[C@@H](CC(N)=O)C(=O)N1)C(=O)NCC(N)=O` [AVP], the pEC50 in the assay on human CRF2α receptor was under 6.00.

As for `CC[C@H](C)[C@H](NC(=O)[C@@H](NC(=O)[C@H](CC(=O)O)NC(=O)[C@H](CC(C)C)NC(=O)[C@H](CC(C)C)NC(=O)[C@H](CC(C)C)NC(=O)[C@H](CCCNC(=N)N)NC(=O)[C@H](CC(N)=O)NC(=O)[C@H](CC(N)=O)NC(=O)[C@H](C)NC(=O)[C@H](C)NC(=O)[C@H](CCC(N)=O)NC(=O)[C@H](CCC(N)=O)NC(=O)[C@H](CCCCN)NC(=O)[C@H](CCC(=O)O)NC(=O)[C@H](CCCCN)NC(=O)[C@H](CCC(=O)O)NC(=O)[C@H](CCC(N)=O)NC(=O)[C@H](CCCCN)NC(=O)[C@H](CCC(=O)O)NC(=O)[C@@H](NC(=O)[C@H](CCC(=O)O)NC(=O)[C@@H](NC(=O)[C@H](CCSC)NC(=O)[C@H](CCCCN)NC(=O)[C@H](CCCNC(=N)N)NC(=O)[C@H](CC(C)C)NC(=O)[C@H](CC(C)C)NC(=O)[C@H](CCC(=O)O)NC(=O)[C@H](CC(C)C)NC(=O)[C@H](CO)NC(=O)[C@H](CC(C)C)NC(=O)[C@H](CC(=O)O)NC(=O)[C@@H](NC(=O)[C@H](CO)NC(=O)[C@@H](NC(=O)[C@@H]1CCCN1C(=O)[C@@H]1CCCN1C(=O)CNC(=O)[C@@H]1CCC(=O)N1)[C@@H](C)CC)[C@@H](C)CC)[C@@H](C)CC)[C@@H](C)CC)[C@@H](C)O)C(N)=O` [Sauvagine], the “relative potency at stimulating cAMP, rat CRF2α receptor” value at rat CRF2α receptor is “more potent than either oCRF or r/hCRF”. In addition, the pEC50 is 9.40 at rat CRF2β receptor and 9.30 in the assay on human CRF2α receptor. `CC[C@H](C)[C@H](NC(=O)[C@H](CO)NC(=O)[C@H](CC(N)=O)NC(=O)[C@H](CC(C)C)NC(=O)[C@H](Cc1ccc(O)cc1)NC(=O)[C@H](CCCCN)NC(=O)[C@H](CCCCN)NC(=O)[C@@H](NC(=O)[C@H](C)NC(=O)[C@H](CCSC)NC(=O)[C@H](CCC(N)=O)NC(=O)[C@H](CCCCN)NC(=O)[C@H](CCCNC(=N)N)NC(=O)[C@H](CC(C)C)NC(=O)[C@H](CCCNC(=N)N)NC(=O)[C@@H](NC(=O)[C@H](Cc1ccc(O)cc1)NC(=O)[C@H](CC(N)=O)NC(=O)[C@H](CC(=O)O)NC(=O)[C@@H](NC(=O)[C@H](Cc1ccccc1)NC(=O)[C@@H](NC(=O)[C@H](C)NC(=O)[C@H](CC(=O)O)NC(=O)[C@H](CO)NC(=O)[C@@H](N)Cc1c[nH]cn1)C(C)C)[C@@H](C)O)[C@@H](C)O)C(C)C)C(=O)N[C@@H](CC(C)C)C(=O)N[C@@H](CC(N)=O)C(N)=O` [VIP]: the pEC50 in the assay with human CRF2α receptor is under 6.00. Regarding `CC[C@H](C)[C@H](NC(=O)[C@H](C)NC(=O)[C@H](CC(=O)O)NC(=O)[C@H](C)NC(=O)[C@@H](N)Cc1ccc(O)cc1)C(=O)N[C@@H](Cc1ccccc1)C(=O)N[C@H](C(=O)N[C@@H](CC(N)=O)C(=O)N[C@@H](CO)C(=O)N[C@@H](Cc1ccc(O)cc1)C(=O)N[C@@H](CCCNC(=N)N)C(=O)N[C@@H](CCCCN)C(=O)N[C@H](C(=O)N[C@@H](CC(C)C)C(=O)NCC(=O)N[C@@H](CCC(N)=O)C(=O)N[C@@H](CC(C)C)C(=O)N[C@@H](CO)C(=O)N[C@@H](C)C(=O)N[C@@H](CCCNC(=N)N)C(=O)N[C@@H](CCCCN)C(=O)N[C@@H](CC(C)C)C(=O)N[C@@H](CC(C)C)C(=O)N[C@@H](CCC(N)=O)C(=O)N[C@@H](CC(=O)O)C(=O)N[C@H](C(=O)N[C@@H](CCSC)C(=O)N[C@@H](CO)C(=O)N[C@@H](CCCNC(=N)N)C(=O)N[C@@H](CCC(N)=O)C(=O)N[C@@H](CCC(N)=O)C(=O)NCC(=O)N[C@@H](CCC(=O)O)C(=O)N[C@@H](CO)C(=O)N[C@@H](CC(N)=O)C(=O)N[C@@H](CCC(N)=O)C(=O)N[C@@H](CCC(=O)O)C(=O)N[C@@H](CCCNC(=N)N)C(=O)NCC(=O)N[C@@H](C)C(=O)N[C@@H](CCCNC(=N)N)C(=O)N[C@@H](C)C(=O)N[C@@H](CCCNC(=N)N)C(=O)N[C@@H](CC(C)C)C(N)=O)[C@@H](C)CC)C(C)C)[C@@H](C)O` [hGRF], the pEC50 at human CRF1 receptor and with human CRF2α receptor was under 6.00 throughout.

In the case of “DLTFHLLREMLEMAKAEQEAEQAALNRLLLEEA-NH2 (C-terminus assumed) [α-helical oCRF(9-41)]”, in the assay on human CRF2α receptor, the pEC50 was under 6.00.

For the molecule “ISLDLTFHLLREVLEMARAEQLAQQAHS [r/hCRF(6-33)]”, the pEC50 at human CRF1 receptor and in the assay with human CRF2α receptor was under 6.00 in each case. In the case of “NDDPPISIDLTFHLLRNMIEMARIENEREQAGLNRKYLDEV-NH2 (C-terminus assumed) [Urotensin I]”, at rat CRF2α receptor, the “relative potency at stimulating cAMP, rat CRF2α receptor” value was “more potent than either oCRF or r/hCRF”. Moreover, the “cAMP accumulation in cells transfected with the CRF1 receptor” value on human CRF1 receptor is reported as “dose-dependent increase in cAMP”. The pEC50 in the assay on human CRF2α receptor was 8.70. With “d-Phe r/hCRF(12-41): CRF receptor antagonist peptide”, the pEC50 with human CRF1 receptor and in the assay with human CRF2α receptor was under 6.00 throughout. Turning to oCRF, the “cAMP accumulation in cells transfected with the CRF1 receptor” value on human CRF1 receptor is reported as “dose-dependent increase in cAMP”. The pEC50 with human CRF2α receptor was 7.10.
